Experimental data from patent US20220289746A1, “PYRROLIDINE DERIVATIVES” (Hoffmann-La Roche Inc., priority 2019, published 2022).

How the values were obtained:
[1] = target: T1, human M4 receptor (Homo sapiens, UniProt P08173); experiment: Calcium flux assay using fluorescent imaging (M4 PAM FLIPR assay); assay type: cell-based; parameters: expressed in transfected cells; host or cells: CHO (monoclonal line, clone 2); conditions: Table 1; CHO cells expressing human M4+Gqi5; acetylcholine EC20
T1 sequence (P08173 1-479): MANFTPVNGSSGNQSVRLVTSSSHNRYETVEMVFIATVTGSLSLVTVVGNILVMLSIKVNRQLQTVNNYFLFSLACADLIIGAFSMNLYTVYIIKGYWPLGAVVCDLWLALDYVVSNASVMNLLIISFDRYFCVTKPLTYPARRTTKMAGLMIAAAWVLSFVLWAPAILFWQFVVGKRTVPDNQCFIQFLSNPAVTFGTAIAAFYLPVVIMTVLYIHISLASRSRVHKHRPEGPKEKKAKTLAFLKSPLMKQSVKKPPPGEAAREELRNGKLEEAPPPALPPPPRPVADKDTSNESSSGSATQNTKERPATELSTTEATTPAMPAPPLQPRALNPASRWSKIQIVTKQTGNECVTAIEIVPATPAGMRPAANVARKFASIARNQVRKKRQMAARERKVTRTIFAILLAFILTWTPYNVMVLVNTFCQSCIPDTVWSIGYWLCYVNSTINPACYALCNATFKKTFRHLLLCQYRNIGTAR
Method: CHO cells were transfected with expression plasmid encoding the human M4 receptor and a Gqi5 construct to redirect Gi signaling to calcium. Stable cells were cloned by limiting dilution to yield a monoclonal cell line expressing human M4+Gqi5 (clone 2). The stable cells were grown in DMEM containing 10% FBS, 200 ug/ml Geneticin and 800 ug/ml Hygromycin at 37° C. in a 10% CO2 incubator at 95% humidity.
Calcium Flux Assay Using Fluorescent Imaging (“M4 PAM FLIPR” Assay)
On the afternoon before the assay, cells were plated at a density of 50,000 cells/well into black 96 well plates with clear bottoms to yield a confluent monolayer the next day. Hanks balanced salt solution, without phenol red, containing 20 mM HEPES (pH 7.3) and 2.5 mM probenecid (assay buffer) was prepared fresh for each experiment. Compound dilutions were made using a Beckman Biomek 2000 laboratory automation workstation, in assay buffer. The dye-loading buffer consisted of a final concentration of 2 μM Fluo-4-AM (dissolved in DMSO and pluronic acid) and 65 μg/ml amidoblack in assay buffer. The existing culture media was removed from the wells and 100 μl of the dye-loading buffer was added to each well and incubated for approximately 90 min at 37° C. in a 5% CO2 incubator at 95% humidity.
Calcium flux in the dye-loaded cells was measured with the fluorescence reader Hamamatsu FDSS 7000. To test compounds as agonists, compound addition (25 μl) was made 10 s into the fluorescent measurements and fluorescent response was recorded for 3 minutes. The fluorescence data was expressed as percentage of the fluorescence obtained by an EC100 concentration (3 μM) of the endogenous full agonist acetylcholine. Each test compound concentration-response curve was constructed using a four parameter logistic equation in Microsoft Excel XLFit as follows:
Y=Minimum+((Maximum−Minimum)/(1+10^(LogEC50−X)nH)).
The concentration of agonist that produced a half-maximal response is represented by the EC50 value. Maximum and minimum are the maximum and minimum fluorescence signal in % respectively. nH is the Hill slope.
To measure positive allosteric modulator activity 25 μl of an EC20 concentration of the endogenous agonist acetylcholine is added to the cells already pre-incubated with the test compound for 15 minutes.
The M4 PAM dose response is constructed using the agonist dose-response equation above. The concentration of PAM that produced a half-maximal response is represented by the EC50 value and the maximum signal measured is the PAM efficacy expressed in % of the EC100 (3 μM) acetylcholine response. • cAMP Assay for M4 Positive Allosteric Modulators (“M4 PAM cAMP” Assay)

[2] = target: T1, human M4 receptor; experiment: cAMP assay for M4 positive allosteric modulators (M4 PAM cAMP assay); assay type: cell-based; parameters: expressed in transfected cells; host or cells: CHO-K1; conditions: Table 1; CHO-K1 cells expressing human M4; forskolin 7.5 μM + acetylcholine EC20 (0.2 nM)
Method: The potency of M4 PAMs was determined using a cell-based cyclic adenosine monophosphate assay. The assay was performed with CHO-Kl cells stably expressing untagged human M4 receptor and cAMP was quantified using the Nano-TRF Detection Assay kit (Roche, Cat. No. 05214386) as described in the kit instructions. The cells were grown in Ham's F-12 Nutrient mix supplemented with 10% FBS and 200 μg/ml geneticin until they reached 80% confluency. The cells were washed with PBS, detached with accutase and resuspended in assay buffer consisting of HBSS and 0.1% BSA. They were then seeded in black 384-well plates (Corning, Cat. No. 3764) at a density of 20,000 cells/20 μl per well until the addition of compounds.
Test compounds were serially diluted 1:2 in 100% DMSO and spotted in 384-well plates at 0.5 μl/well. The compounds were then diluted in water containing IBMX (Sigma, Cat. No. 17018) and a sample (5 μl) was added to the cells for 15 minutes at 37° C./5% CO2. After this incubation the cells were stimulated with a combination of forskolin (7.5 μM) and acetylcholine EC20 (0.2 nM) in assay buffer for 30 minutes at 37° C./5% CO2. The assay was stopped by adding cAMP detection mix (15 μl/well, containing detergents for cell lysis) for one hour at RT.
The test plates were read using a SpectraMax i3x reader (Molecular Devices). The exported raw data was used to calculate the FRET signal based on the P-factor as per cAMP kit instructions. The data was normalized to the activity of acetylcholine plus forskolin, with 2 nM of acetylcholine plus 7.5 μM forskolin defined as 100% activity. Dose response curves were fitted to the percent activity data of the compounds using a sigmoidal dose response model (XLfit, IDBS) and the data were reported as EC50 and percent efficacy.

| EC50 [1] [µM] | EC50 [2] [µM] | Compound |
| --- | --- | --- |
| 1.06 | 0.817 | CNc1ncc(N2CC[C@@H](C(=O)N3Cc4nc(C)c(Cl)c(C)c4C3)C2)cn1 [Example 35, (3-chloro-2,4-dimethyl-5,7-dihydropyrrolo[3,4-b]pyridin-6-yl)-[(3R)-1-[2-(methylamino)pyrimidin-5-yl]pyrrolidin-3-yl]methanone] |
| 0.804 | 1.37 | COc1cnc(N2CC[C@@H](C(=O)N3Cc4nc(C)c(Cl)c(C)c4C3)C2)cn1 [Example 45, (3-chloro-2,4-dimethyl-5,7-dihydropyrrolo[3,4-b]pyridin-6-yl)-[(3R)-1-(5-methoxypyrazin-2-yl)pyrrolidin-3-yl]methanone] |
| 2.52 | 2.2 | Cc1nc2c(c(C)c1Cl)CN(C(=O)[C@@H]1CCN(c3cccnn3)C1)C2 [Example 39, (3-chloro-2,4-dimethyl-5,7-dihydropyrrolo[3,4-b]pyridin-6-yl)-[(3R)-1-pyridazin-3-ylpyrrolidin-3-yl]methanone] |
| 1.6 | 4.77 | COc1nccc(N2CC[C@@H](C(=O)N3Cc4nc(C)c(Cl)c(C)c4C3)C2)n1 [Example 25, (3-chloro-2,4-dimethyl-5,7-dihydropyrrolo[3,4-b]pyridin-6-yl)-[(3R)-1-(2-methoxypyrimidin-4-yl)pyrrolidin-3-yl]methanone] |
| 0.549 | 0.166 | COc1cncc(N2CC[C@@H](C(=O)N3Cc4nc(C)c(Cl)c(C)c4C3)C2)c1 [Example 18, (3-chloro-2,4-dimethyl-5,7-dihydropyrrolo[3,4-b]pyridin-6-yl)-[(3R)-1-(5-methoxy-3-pyridyl)pyrrolidin-3-yl]methanone] |
| 0.575 | 0.603 | Cc1nc2c(c(C)c1Cl)CN(C(=O)[C@@H]1CCN(c3cnc(C4COC4)nc3)C1)C2 [Example 34, (3-chloro-2,4-dimethyl-5,7-dihydropyrrolo[3,4-b]pyridin-6-yl)-[(3R)-1-[2-(oxetan-3-yl)pyrimidin-5-yl]pyrrolidin-3-yl]methanone] |
| 1.36 | 0.446 | CNc1ccc(N2CC[C@@H](C(=O)N3Cc4nc(C)c(Cl)c(C)c4C3)C2)cn1 [Example 11, (3-chloro-2,4-dimethyl-5,7-dihydropyrrolo[3,4-b]pyridin-6-yl)-[(3R)-1-[6-(methylamino)-3-pyridyl]pyrrolidin-3-yl]methanone] |
| 0.24 | 0.23 | Cc1nc2c(c(C)c1Cl)CN(C(=O)[C@@H]1CCN(c3cncc(OC(F)F)c3)C1)C2 [Example 17, (3-chloro-2,4-dimethyl-5,7-dihydropyrrolo[3,4-b]pyridin-6-yl)-[(3R)-1-[5-(difluoromethoxy)-3-pyridyl]pyrrolidin-3-yl]methanone] |
| 0.394 | 0.405 | Cc1ncncc1N1CC[C@@H](C(=O)N2Cc3nc(C)c(Cl)c(C)c3C2)C1 [Example 37, (3-chloro-2,4-dimethyl-5,7-dihydropyrrolo[3,4-b]pyridin-6-yl)-[(3R)-1-(4-methylpyrimidin-5-yl)pyrrolidin-3-yl]methanone] |
| 1.11 | 1.28 | Cc1nc2c(c(C)c1Cl)CN(C(=O)[C@@H]1CCN(c3cnc(C#N)cn3)C1)C2 [Example 44, 5-[(3R)-3-(3-chloro-2,4-dimethyl-5,7-dihydropyrrolo[3,4-b]pyridine-6-carbonyl)pyrrolidin-1-yl]pyrazine-2-carbonitrile] |
| 1.01 | 2.08 | Cc1nc2c(c(C)c1Cl)CN(C(=O)[C@@H]1CCN(c3ncc(C(F)(F)F)cn3)C1)C2 [Example 7, (3-chloro-2,4-dimethyl-5,7-dihydropyrrolo[3,4-b]pyridin-6-yl)-[(3R)-1-[5-(trifluoromethyl)pyrimidin-2-yl]pyrrolidin-3-yl]methanone] |
| 1.03 | 1.01 | COc1ccc(N2CC[C@@H](C(=O)N3Cc4nc(C)c(Cl)c(C)c4C3)C2)cn1 [Example 10, (3-chloro-2,4-dimethyl-5,7-dihydropyrrolo[3,4-b]pyridin-6-yl)-[(3R)-1-(6-methoxy-3-pyridyl)pyrrolidin-3-yl]methanone] |
| 0.577 | 2.08 | COc1cncc(N2CC[C@@H](C(=O)N3Cc4nc(C)c(Cl)c(C)c4C3)C2)n1 [Example 42, (3-chloro-2,4-dimethyl-5,7-dihydropyrrolo[3,4-b]pyridin-6-yl)-[(3R)-1-(6-methoxypyrazin-2-yl)pyrrolidin-3-yl]methanone] |
| 0.547 | 0.69 | Cc1ccc(N2CC[C@@H](C(=O)N3Cc4nc(C)c(Cl)c(C)c4C3)C2)cn1 [Example 4, (3-chloro-2,4-dimethyl-5,7-dihydropyrrolo[3,4-b]pyridin-6-yl)-[(3R)-1-(6-methyl-3-pyridyl)pyrrolidin-3-yl]methanone] |
| 0.486 | 0.08 | COCc1nc2c(c(C)c1Cl)CN(C(=O)[C@@H]1CCN(c3cccnc3)C1)C2 [Example 56, [3-chloro-2-(methoxymethyl)-4-methyl-5,7-dihydropyrrolo[3,4-b]pyridin-6-yl]-[(3R)-1-(3-pyridyl)pyrrolidin-3-yl]methanone] |
| 2.37 | 0.242 | COc1ncc(N2CC[C@@H](C(=O)N3Cc4nc(C)c(Cl)c(C)c4C3)C2)cn1 [Example 33, (3-chloro-2,4-dimethyl-5,7-dihydropyrrolo[3,4-b]pyridin-6-yl)-[(3R)-1-(2-methoxypyrimidin-5-yl)pyrrolidin-3-yl]methanone] |
| 1.3 | 1.26 | Cc1ncccc1N1CC[C@@H](C(=O)N2Cc3nc(C)c(Cl)c(C)c3C2)C1 [Example 12, (3-chloro-2,4-dimethyl-5,7-dihydropyrrolo[3,4-b]pyridin-6-yl)-[(3R)-1-(2-methyl-3-pyridyl)pyrrolidin-3-yl]methanone] |
| 0.099 | 0.283 | COCc1nc2c(c(C)c1Cl)CN(C(=O)[C@@H]1CCN(c3ccnc(C(F)F)c3)C1)C2 [Example 57, [3-chloro-2-(methoxymethyl)-4-methyl-5,7-dihydropyrrolo[3,4-b]pyridin-6-yl]-[(3R)-1-[2-(difluoromethyl)-4-pyridyl]pyrrolidin-3-yl]methanone] |
